Data: patent US10342797B2, “Solubility of therapeutic agents” (LivePet LLC, priority 2016, dated 2019)
≈ marks a conversion by molar mass, not a printed value.

Experiments:
[1] = Solubility in lipofullerene base, confirmed by a turbidometer
Procedure: Each of the above mixtures were sonicated for 30 seconds followed by vortexing for 12 hours in the dark.

AsPC-1 cells = assay: Xenograft studies; format: in vivo, nude mice; conditions: oral gavage, 1 mg of triptolide/1 mL of C60-olive oil base, ~28 days
Procedure: AsPC-1 cells were purchased from American Type Culture Collection (ATCC). Cells were harvested from sub-confluent cultures after brief exposure to 0.25% trypsin and 0.2% EDTA. The cells were washed once in serum-free medium and re-suspended thereafter in PBS. Only suspensions consisting of single cells with >90% viability were used for the injections. Mice were injected with 1.5×10^6 cells sub-cutaneously (S.C) on the right side of hind leg of each mouse using a 23-gauge needle. After tumor transplant, the mice were observed daily for one week, before randomly assigning them to the treatment groups (n=5). The animals thereafter received triptolide (1 mg of triptolide/1 mL of C60-olive oil base) by oral gavage starting on day 15 or on tumor volume reaching ˜40-70 mm^3. The treatment was continued until ˜28 days from first dose. […] Tumor size was measured once a week. At the end of the experimental period, the animals were euthanized.

Water solubility = format: physicochemical; conditions: read-out: Water solublity

Row | Structure (SMILES) | Fold solubility ([1]; 12 h) | solubility (Water solubility) [µg/mL] | other results
1 | CC(C)[C@]12O[C@H]1[C@@H]1O[C@]13[C@]1(O[C@H]1C[C@H]1C4=C(CC[C@@]13C)C(=O)OC4)[C@@H]2O [triptolide] |  |  | amount of triptolide dissolved in lipofullerene base ([1]; lipofullerene base of Example 1, nitrogen gas atmosphere, stirred for 2 hours): About 2 gm/1000 mL; tumor size (AsPC-1 cells; 50 μg/kg): tumor regression was observed; tumor size (AsPC-1 cells; 100 μg/kg): tumor regression was observed; tumor size (AsPC-1 cells; 250 μg/kg): tumor regression was observed
2 | CC(=O)O[C@@]12CO[C@@H]1C[C@H](O)[C@@]1(C)C(=O)[C@H](O)C3=C(C)[C@@H](OC(=O)[C@H](O)[C@@H](NC(=O)OC(C)(C)C)c4ccccc4)C[C@@](O)([C@@H](OC(=O)c4ccccc4)[C@H]21)C3(C)C [docetaxel] | >100 |  | 
3 | CC[C@]1(O)C[C@H]2CN(CCc3c([nH]c4ccccc34)[C@@](C(=O)OC)(c3cc4c(cc3OC)N(C=O)[C@H]3[C@@](O)(C(=O)OC)[C@H](OC(C)=O)[C@]5(CC)C=CCN6CC[C@]43[C@@H]65)C2)C1 [vincristine] | 17 | 30 (≈ 36.4 µM) | 
4 | C#Cc1cccc(Nc2ncnc3cc(OCCOC)c(OCCOC)cc23)c1 [erlotinib] | 3 | 400 (≈ 1020 µM) | 
5 | CC[C@@]1(O)C(=O)OCc2c1cc1n(c2=O)Cc2cc3ccccc3nc2-1 [camptothecin] |  | 107 (≈ 307 µM) | Fold solubility ([1]; lipofullerene base compared to solubility in water): 5
6 | CC(=O)O[C@H]1C(=O)[C@@]2(C)[C@H]([C@H](OC(=O)c3ccccc3)[C@]3(O)C[C@H](OC(=O)[C@H](O)[C@@H](NC(=O)c4ccccc4)c4ccccc4)C(C)=C1C3(C)C)[C@]1(OC(C)=O)CO[C@@H]1C[C@@H]2O [paclitaxel] | 90 | 5.56 (≈ 6.51 µM) | 
